Series [1] in a line: Acute toxicity in the mouse, Weil method. Particulars: in vivo, ip. An excerpt: The acute toxicity of the compounds of general formula (I) has been studied in the mouse with the Weil method (Weil C. S., Biometer. J. 8, 249, 1952).
The LD50 values of some compounds illustrated in Table I, indicate that the compounds are remarkably well tolerated. PG,20
general formula (I). Weil's method (N = 5, K = 4) Cl = hydro-

A further series relates to bronchial secretion. Nature of the series: Expectorant activity (bronchial secretion), method of Perry et al. It is filed as in vivo, male rabbits. Particulars: rabbits; for Percentage variations of bronchial secretion, 1 hour: 1 hour after administration; for Percentage variations of bronchial secretion, 2 hours: 2 hours after administration; for Percentage variations of bronchial secretion, 4 hours: 4 hours after administration. As to the method: The tests were carried out on male rabbits, weighing 2-3 Kg, anesthetized with ethyl urethane, by following the method disclosed by Perry et al. (J. Pharm. Exp. Ther. 73, 65, 1941).
Each cannula was connected to a feeding device which delivered a steady flow-rate of pre-heated air (36°-38° C.) at constant humidity (80%). At the lower end of each cannula, a graduated cylinder was fitted, wherein the bronchial secretion was collected. All of the animals breathed spontaneously and consequently they self-regulated the air intake suitable for normal respiration. […] Each dose of drug was administered to 5 animals. The control animals (8) were given water only. The amount of secretion was determined after 1, 2 and 4 hours from administration.

For series [2], the system named is damage provoked by irradiation in rats. The series can be described thus: Protection against X-ray exposure (survival after irradiation). It is filed as in vivo, Albino Wister rats. Particulars: 30-40 mg Kg^-1 1 hour before irradiation and 15 mg Kg^-1 per day in the subsequent 20 days. As to the method: The effect of the compounds of formula (I) towards the damages provoked by X-ray exposure was studied.
The experiment animals, Albino Wister rats, treated with the compounds under examination (30-40 mg Kg^-1 1 hour before irradiation and 15 mg Kg^-1 per day in the subsequent 20 days) were irradiated and checked over a time period to detect the onset of toxic effects and the time of survival with respect to the control group. […]

Series [3] relates to burned cutaneous area of the back. Nature of the series: Cutaneous regeneration from burns. Particulars: rabbits, oral, 20 mg Kg^-1 once a day for seven days; for Percentage of regenerated tissue, 4th day: 4th day from treatment; for Percentage of regenerated tissue, 8th day: 8th day from treatment. It is filed as in vivo. The method, then: The ability of the compounds of formula (I) to speed up the cutaneous regeneration from burns has been tested in rabbits.
A 4 cm^2 cutaneous area of the average-top zone of the test animal back was burned.
The compounds were orally administered in aqueous solution at the dose of 20 mg Kg^-1 once a day for seven days. The area of cutaneous regeneration, i.e. the area of the newly formed tissue was then measured (Table III).

Series [4] is described as follows: Mucolytic activity in vitro on human sputum (thromboelastograph, method of Morandini et al.). Conditions: for Percentage drop ± s.e. of the tracing versus maximum peak (mucolytic activity index), dilution 1/30: 1 ml of a 10% solution at dilution 1/30; for Percentage drop ± s.e. of the tracing versus maximum peak (mucolytic activity index), dilution 1/60: 1 ml of a 10% solution at dilution 1/60. The method, then:
The tests were carried out in vitro by using the method disclosed by Morandini et al. (Lotta contro la tubercolosi 47, n. 4, 1977). A thromboelastograph was used to follow the variations induced by the compounds of general formula (I) and acetylcisteine on the rheological properties of human sputum.

The mark [5] stands for this setting: mice, ep, Weil's method (N = 5, K = 4).

Structures can show the parent of a compound that is named as a salt.

What is called LD50 is the dose at which mortality reaches 50%. Read a high LD50 as lower toxicity. In turn, `C[N+](C)(C)CC(CC(=O)O)OC(=O)CCCCS` (stereo not shown) [5-mercapto valeryl carnitine Cl] yielded an LD50 in series [1] of 281 mg/kg. In addition, in the series on bronchial secretion (15 mg oral), the “Percentage variations of bronchial secretion, 1 hour” value (from here on “Percentage variations … 1 hour”) is given as “+0.6%”; the “Percentage variations of bronchial secretion, 2 hours” value (from here on “Percentage variations … 2 hours”) is given as -0.3%; the “Percentage variations of bronchial secretion, 4 hours” value (shortened to “Percentage variations … 4 hours”) is “+1.4%”. In series [2], the “Percentage of surviving animals” value was found to be 50%; the “Percentage of surviving animals, day 10 from irradiation” value (“Percentage … day 10 from irradiation” below) was 95%; the “Percentage of surviving animals, day 20 from irradiation” value (“Percentage … day 20 from irradiation” for short) was found to be 70%. In series [3], the “Percentage of regenerated tissue, 4th day” value (from here on “Percentage … 4th day”) came out at 20% and the “Percentage of regenerated tissue, 8th day” value (“Percentage … 8th day” for short) is given as 60%. Moreover, in series [4], the “Percentage drop ± s.e. of the tracing versus maximum peak (mucolytic activity index), dilution 1/30” value was 90.3 ± 6% and the “Percentage drop ± s.e. of the tracing versus maximum peak (mucolytic activity index), dilution 1/60” value turned out to be 48.3 ± 6%.

For `C[N+](C)(C)CC(CC(=O)O)OC(=O)CS` (stereo not shown) [mercapto acetyl carnitine Cl], in series [1], the LD50 is 308 mg/kg. Also, in the series with bronchial secretion (10 mg oral), the “Percentage variations … 1 hour” value is given as “+0.3%”; the “Percentage variations … 2 hours” value was “+0.9%”; the “Percentage variations … 4 hours” value was “+2.4%”. In series [2], the “Percentage of surviving animals” value came to 30%; the “Percentage … day 10 from irradiation” value is reported as 85%; the “Percentage … day 20 from irradiation” value was 45%. In addition, in series [3], the “Percentage … 4th day” value was determined as 35% and the “Percentage … 8th day” value is reported as 70%. Further, in series [4], the “Percentage drop ± s.e. of the tracing versus maximum peak (mucolytic activity index), dilution 1/30” value is given as 78.3 ± 5% and the “Percentage drop ± s.e. of the tracing versus maximum peak (mucolytic activity index), dilution 1/60” value is 45.2 ± 4%.

Compound `C[N+](C)(C)CC(CC(=O)O)OC(=O)CCCS` (stereo not shown) [4-mercapto butyryl carnitine Cl, 4-mercapto butyryl carnitine hydrochloride] yielded an LD50 in series [1] (setting [5]) of 303 mg/kg. For the same compound, in the series with bronchial secretion (20 mg oral), the “Percentage variations … 1 hour” value was “+0.4%”; the “Percentage variations … 2 hours” value is reported as “+0.6%”; the “Percentage variations … 4 hours” value is given as “+1.2%”. In addition, in series [2], the “Percentage of surviving animals” value came out at 55%; the “Percentage … day 10 from irradiation” value is listed as 100%; the “Percentage … day 20 from irradiation” value is given as 80%. In series [3], the “Percentage … 4th day” value worked out at 25% and the “Percentage … 8th day” value was 70%.

In turn, `CCC(S)C(=O)OC(CC(=O)O)C[N+](C)(C)C` (stereo not shown) [2-mercapto butyryl carnitine Cl] displayed an LD50 in series [1] of 294 mg/kg. In the series on bronchial secretion (15 mg oral), the “Percentage variations … 1 hour” value is on record as “+0.5%”; the “Percentage variations … 2 hours” value is “+0.9%”; the “Percentage variations … 4 hours” value is given as “+2.3%”. For the same compound, in series [2], the “Percentage of surviving animals” value was 70%; the “Percentage … day 10 from irradiation” value is recorded as 100%; the “Percentage … day 20 from irradiation” value is 85%. Also, in series [3], the “Percentage … 4th day” value amounted to 35% and the “Percentage … 8th day” value is reported as 95%. For the same compound, in series [4], the “Percentage drop ± s.e. of the tracing versus maximum peak (mucolytic activity index), dilution 1/30” value came to 85.3 ± 4% and the “Percentage drop ± s.e. of the tracing versus maximum peak (mucolytic activity index), dilution 1/60” value amounted to 38.4 ± 5%.

Compound `C[N+](C)(C)CC(CC(=O)O)OC(=O)CCS` (stereo not shown) [3-mercapto propionyl carnitine Cl, 3-mercapto propionyl carnitine hydrochloride] yielded a median lethal dose (LD50) in series [1] (setting [5]) of 312 mg/kg. For the same compound, in the series on bronchial secretion (15 mg oral), the “Percentage variations … 1 hour” value is -0.2%; the “Percentage variations … 2 hours” value is “+0.4%”; the “Percentage variations … 4 hours” value is “+1.1%”. Moreover, in series [2], the “Percentage of surviving animals” value worked out at 60%; the “Percentage … day 10 from irradiation” value worked out at 90%; the “Percentage … day 20 from irradiation” value worked out at 80%. Also, in series [3], the “Percentage … 4th day” value is listed as 40% and the “Percentage … 8th day” value turned out to be 80%.

Compound `CC(S)C(=O)OC(CC(=O)O)C[N+](C)(C)C` (stereo not shown) [2-mercapto propionyl carnitine Cl] displayed an LD50 in series [1] of 294 mg/kg. Besides, in the series with bronchial secretion (10 mg oral), the “Percentage variations … 1 hour” value is “+0.1%”; the “Percentage variations … 2 hours” value is reported as “+0.2%”; the “Percentage variations … 4 hours” value is on record as “+2.0%”. In series [2], the “Percentage of surviving animals” value was found to be 45%; the “Percentage … day 10 from irradiation” value is given as 80%; the “Percentage … day 20 from irradiation” value stood at 70%. Further, in series [3], the “Percentage … 4th day” value worked out at 30% and the “Percentage … 8th day” value came out at 65%. Besides, in series [4], the “Percentage drop ± s.e. of the tracing versus maximum peak (mucolytic activity index), dilution 1/30” value stood at 85.4 ± 6% and the “Percentage drop ± s.e. of the tracing versus maximum peak (mucolytic activity index), dilution 1/60” value amounted to 46.5 ± 6%.

As for `CC(=O)N[C@@H](CS)C(=O)O` [Acetylcysteine, reference compound], in series [4], the “Percentage drop ± s.e. of the tracing versus maximum peak (mucolytic activity index), dilution 1/30” value came to 75.7 ± 7% and the “Percentage drop ± s.e. of the tracing versus maximum peak (mucolytic activity index), dilution 1/60” value came out at 22.3 ± 4%.

(Values after US4593043A, “Mercapto acyl-carnitines and pharmaceutical compositions containing same” (Sigma-Tau Industrie Farmaceutiche Riunite S.p.A., priority 1981, dated 1986).)
